US8598365B2, “Herbicides” (Syngenta Limited, priority 2007, dated 2013)

Assays:
Assay type in all cases: in vivo
[1] = tested on: Alopecurus myosuroides (ALOMY); test: Example B pre-emergence herbicidal activity; details: 312 h, rate 250 g/ha, evaluated after 13 days, read-out: Pre-Emergence Activity ALOMY (100=total damage to plant; 0=no damage to plant)
How it was run: (§1)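 Plants were sprayed 1 day after sowing (pre-emergence) or after 8 days (post-emergence) with active ingredient in acetone/water 50:50 plus 0.5% Tween 20. They were grown in a glasshouse at 24/16 °C, 14 h light and 65% humidity. Damage was scored visually 0–100 after 13 days.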

Avena fatua (AVEFA) [2] = test: Example B pre-emergence herbicidal activity; details: 312 h, rate 250 g/ha, evaluated after 13 days, read-out: Pre-Emergence Activity AVEFA (100=total damage to plant; 0=no damage to plant)
How it was run: as §1

Setaria faberi (SETFA) [3] = test: Example B pre-emergence herbicidal activity; details: 312 h, rate 250 g/ha, evaluated after 13 days, read-out: Pre-Emergence Activity SETFA (100=total damage to plant; 0=no damage to plant)
How it was run: as §1

[4] = tested on: Echinochloa crus-galli (ECHCG); test: Example B pre-emergence herbicidal activity; details: 312 h, rate 250 g/ha, evaluated after 13 days, read-out: Pre-Emergence Activity ECHCG (100=total damage to plant; 0=no damage to plant)
How it was run: as §1

[5] = tested on: Amaranthus retoflexus (AMARE); test: Example B pre-emergence herbicidal activity; details: Amaranthus retroflexus, 312 h, rate 250 g/ha, evaluated after 13 days, read-out: Pre-Emergence Activity AMARE (100=total damage to plant; 0=no damage to plant)
How it was run: as §1

[6] = tested on: Alopecurus myosuroides (ALOMY); test: Example B post-emergence herbicidal activity; details: 312 h, rate 250 g/ha, evaluated after 13 days, read-out: Post-emergence activity ALOMY (100=total damage to plant; 0=no damage to plant)
How it was run: as §1

Avena fatua (AVEFA) [7] = test: Example B post-emergence herbicidal activity; details: 312 h, rate 250 g/ha, evaluated after 13 days, read-out: Post-emergence activity AVEFA (100=total damage to plant; 0=no damage to plant)
How it was run: as §1

Setaria faberi (SETFA) [8] = test: Example B post-emergence herbicidal activity; details: 312 h, rate 250 g/ha, evaluated after 13 days, read-out: Post-emergence activity SETFA (100=total damage to plant; 0=no damage to plant)
How it was run: as §1

[9] = tested on: Echinochloa crus-galli (ECHCG); test: Example B post-emergence herbicidal activity; details: 312 h, rate 250 g/ha, evaluated after 13 days, read-out: Post-emergence activity ECHCG (100=total damage to plant; 0=no damage to plant)
How it was run: as §1

[10] = tested on: Amaranthus retoflexus (AMARE); test: Example B post-emergence herbicidal activity; details: Amaranthus retroflexus, 312 h, rate 250 g/ha, evaluated after 13 days, read-out: Post-emergence activity AMARE (100=total damage to plant; 0=no damage to plant)
How it was run: as §1

SMILES | pest or weed control at 250 g/ha [1] [%] | pest or weed control at 250 g/ha (Avena fatua (AVEFA) [2]) [%] | pest or weed control at 250 g/ha (Setaria faberi (SETFA) [3]) [%] | pest or weed control at 250 g/ha [4] [%] | pest or weed control at 250 g/ha [5] [%] | pest or weed control at 250 g/ha [6] [%] | pest or weed control at 250 g/ha (Avena fatua (AVEFA) [7]) [%] | pest or weed control at 250 g/ha (Setaria faberi (SETFA) [8]) [%] | pest or weed control at 250 g/ha [9] [%] | pest or weed control at 250 g/ha [10] [%]
CCc1sc(-c2ccc(OC(F)F)cc2)nc1C1C(=O)[C@@H]2CC[C@@H](C2)C1=O (stereo partly drawn) [Compound T44] | 90 | 60 | 100 | 100 | 0 | 100 | 100 | 100 | 100 | 0
CCc1sc(-c2c(C)cc(Cl)cc2F)nc1C1C(=O)[C@@H]2CC[C@@H](C2)C1=O (stereo partly drawn) [Compound T45] | 90 | 30 | 100 | 100 | 0 | 100 | 100 | 100 | 100 | 0
CCc1sc(-c2ccc(Cl)cc2Cl)nc1C1C(=O)[C@@H]2CC[C@@H](C2)C1=O (stereo partly drawn) [Compound T46] | 60 | 30 | 90 | 100 | 0 | 100 | 90 | 100 | 100 | 0
O=C1C(c2nc(-c3ccc(Cl)cc3)sc2Br)C(=O)[C@H]2CC[C@@H]1C2 (stereo partly drawn) [Compound T49] | 100 | 100 | 100 | 100 | 0 | 90 | 90 | 100 | 100 | 0
CCc1sc(-c2ccc(Cl)cc2Br)nc1C1C(=O)[C@@H]2CC[C@@H](C2)C1=O (stereo partly drawn) [Compound T51] | 80 | 20 | 100 | 100 | 0 | 100 | 100 | 100 | 100 | 0
CCc1sc(-c2cc(F)c(Cl)cc2Cl)nc1C1C(=O)[C@@H]2CC[C@@H](C2)C1=O (stereo partly drawn) [Compound T53] | 90 | 80 | 100 | 100 | 0 | 100 | 100 | 100 | 100 | 0
CCc1sc(-c2ccc(C)cc2)nc1C1C(=O)[C@@H]2CC[C@@H](C2)C1=O (stereo partly drawn) [Compound T54] | 90 | 70 | 60 | 100 | 0 | 100 | 90 | 100 | 100 | 30
O=C1C(c2nc(-c3ccc(Cl)cc3)sc2Cl)C(=O)[C@H]2CC[C@@H]1C2 (stereo partly drawn) [Compound T55] | 100 | 100 | 100 | 100 | 0 | 100 | 100 | 100 | 100 | 0
Cc1sc(-c2ccccc2)nc1C1C(=O)[C@@H]2CC[C@@H](C2)C1=O (stereo partly drawn) [Compound T56] | 0 | 0 | 0 | 40 | 0 | 0 | 0 | 70 | 60 | 0
Cc1sc(-c2ccc(F)cc2)nc1C1C(=O)[C@@H]2CC[C@@H](C2)C1=O (stereo partly drawn) [Compound T57] | 60 | 20 | 90 | 90 | 0 | 70 | 60 | 100 | 100 | 0
COc1ccc(-c2nc(C3C(=O)[C@@H]4CC[C@@H](C4)C3=O)c(C)s2)cc1 (stereo partly drawn) [Compound T58] | 60 | 60 | 60 | 100 | 0 | 90 | 80 | 100 | 100 | 0
Cc1sc(-c2ccc(C(F)(F)F)cc2)nc1C1C(=O)[C@@H]2CC[C@@H](C2)C1=O (stereo partly drawn) [Compound T59] | 80 | 70 | 100 | 90 | 0 | 100 | 80 | 100 | 100 | 0
Cc1sc(-c2ccc3ccccc3c2)nc1C1C(=O)[C@@H]2CC[C@@H](C2)C1=O (stereo partly drawn) [Compound T63] | 90 | 90 | 90 | 100 | 0 | 60 | 70 | 100 | 100 | 0
Cc1sc(-c2ccc3c(c2)OCCO3)nc1C1C(=O)[C@@H]2CC[C@@H](C2)C1=O (stereo partly drawn) [Compound T64] | 20 | 0 | 0 | 0 | 0 | 0 | 0 | 70 | 50 | 0
Cc1sc(-c2ccc(C#N)cc2)nc1C1C(=O)[C@@H]2CC[C@@H](C2)C1=O (stereo partly drawn) [Compound T65] | 50 | 20 | 100 | 100 | 20 | 50 | 70 | 100 | 100 | 70
